Target: NCX (Mus musculus, UniProt P70414)
Experiment: In vivo MEMRI Mn^2+ efflux study with NCX inhibition by SEA0400 (dose dependent groups), pharmacokinetic Models 1-3
Details: for Mn^2+ efflux rate following inhibition of the NCX, % of the initial, pre-SEA0400 administration, rate: Model 2 prediction, maximum inhibition
[1] = Model 1, 10 mg/kg SEA0400 i.p. 1 h post-190 nmoles/g BW MnCl2
[2] = Model 1, 20 mg/kg SEA0400 i.p. 1 h post-190 nmoles/g BW MnCl2
[3] = Model 1, 34 mg/kg SEA0400 i.p. 1 h post-190 nmoles/g BW MnCl2
[4] = Model 1, 50 mg/kg SEA0400 i.p. 1 h post-190 nmoles/g BW MnCl2
[5] = Model 2, 10 mg/kg SEA0400 i.p. 1 h post-190 nmoles/g BW MnCl2
[6] = Model 2, 20 mg/kg SEA0400 i.p. 1 h post-190 nmoles/g BW MnCl2
[7] = Model 2, 34 mg/kg SEA0400 i.p. 1 h post-190 nmoles/g BW MnCl2
[8] = Model 2, 50 mg/kg SEA0400 i.p. 1 h post-190 nmoles/g BW MnCl2
[9] = Model 3, 10 mg/kg SEA0400 i.p. 1 h post-190 nmoles/g BW MnCl2
[10] = Model 3, 20 mg/kg SEA0400 i.p. 1 h post-190 nmoles/g BW MnCl2
[11] = Model 3, 34 mg/kg SEA0400 i.p. 1 h post-190 nmoles/g BW MnCl2
[12] = Model 3, 50 mg/kg SEA0400 i.p. 1 h post-190 nmoles/g BW MnCl2

Protocol: The mice were randomized into three groups for efflux studies: 1) MnCl2 dose dependent (65±0.2, 119±2, 190±3 (Control) and 283±6 nmoles/g body weight MnCl2, n=40 mice) 2) SEA0400 dose dependent (190±1 nmoles/g BW MnCl2 infusion, followed 1 hour later with an i.p. injection of 10±0.2, 20±0.2, 34±0.8 and 50±0.2 mg/kg SEA0400, n=30) 3) Myocardial infarction (MI, 190±0.1 nmoles/g BW MnCl2, n=9)
In order to model the drug pharmacokinetics of SEA0400, and therefore the Mn^2+ transport mechanisms, an equation for the drug plasma concentration (Cp) was used (Eq. [2]), commonly applied to pharmaceutical modeling:
In Eq. [2] F is the fraction of drug absorbed, Vp is the apparent volume of distribution of the drug and D is the drug dose administered. The rate parameters, kel and kabs represent the drug elimination and absorption rates respectively.
The form for the Mn^2+ transfer rate parameter k21 was given by Eq. [3], under the assumption that k21 decreases linearly with increasing SEA0400 plasma concentration, Cp, as in Eq. [2]:
Parameter k21,initial is defined as the pre-pharmaceutical administration transfer parameter, k21(t<1 h). […] All the transfer rate and pharmaceutical parameters were therefore time-independent with the exception of k0 and k21 following SEA0400 administration.
The pharmaceutical absorption and elimination half-live (t1/2abs and t1/2el respectively) are given in Eq. [4] and Eq. [5].
Solutions to the ODEs were acquired using simultaneous 4th Order Runge-Kutta numerical methods in Matlab (Nantick, Mass.). Temporal in vivo cardiac Mn^2+ content data and ex vivo blood Mn^2+ content data were fit simultaneously to acquire least square fits for the first order rate parameters, kab. Least square fits of the pharmaceutical parameters, kabs and kel were also obtained using the SEA0400 groups, assuming that kab was unchanged from the control 190 nmoles/g group. […] The only constraint made by the least square fitting technique was that the transfer rate parameters and pharmaceutical parameters were ≧0.
Least square curve fitting techniques are inherently sensitive to the initial estimates of kab. For a given initial estimate of kab the fit may converge on solutions at local minima, which may not be the global minimum. In order to minimize potential errors caused by this effect, all the models employed a global search over a wide range in parameter space to find the initial estimates of kab corresponding to lowest fit residuals. To use the most realistic initial estimates for the fitting function, simultaneous solutions were obtained for the control 190 nmoles/g heart and 50 mg/kg SEA0400 heart efflux data, as well as the corresponding blood efflux data.
For the SEA0400 groups, a similar set of simultaneous ODEs was used, with k21 modeled as a function of time (Eq. [3]).
k21total and k2comp are the total transfer rates from compartment 2 to the blood, and from compartment 2 to compartments 3 and 4, respectively. These two parameters were estimated via the modeling technique.

CCOc1ccc(Oc2ccc(OCc3cc(F)ccc3F)cc2)c(N)c1 [SEA0400]
kabs drug absorption rate [1]: 671 h⁻¹
kel drug elimination rate [1]: 1.7 h⁻¹
kabs drug absorption rate [2]: 672 h⁻¹
kel drug elimination rate [2]: 0.51 h⁻¹
kabs drug absorption rate [3]: 680 h⁻¹
kel drug elimination rate [3]: 0.49 h⁻¹
kabs drug absorption rate [4]: 66 h⁻¹
kel drug elimination rate [4]: 0.14 h⁻¹
kabs drug absorption rate [5]: 68 h⁻¹
kel drug elimination rate [5]: 1.6 h⁻¹
kabs drug absorption rate [6]: 149 h⁻¹
kel drug elimination rate [6]: 0.47 h⁻¹
kabs drug absorption rate [7]: 115 h⁻¹
kel drug elimination rate [7]: 0.41 h⁻¹
kabs drug absorption rate [8]: 118 h⁻¹
kel drug elimination rate [8]: 0.17 h⁻¹
Mn^2+ efflux rate following inhibition of the NCX, % of the initial, pre-SEA0400 administration, rate (10 mg/kg SEA0400): 8.2%
Mn^2+ efflux rate following inhibition of the NCX, % of the initial, pre-SEA0400 administration, rate (20 mg/kg SEA0400): 1.8%
Mn^2+ efflux rate following inhibition of the NCX, % of the initial, pre-SEA0400 administration, rate (35 mg/kg SEA0400): 1.6%
Mn^2+ efflux rate following inhibition of the NCX, % of the initial, pre-SEA0400 administration, rate (50 mg/kg SEA0400): 1.0%
kabs drug absorption rate [9]: 85 h⁻¹
kel drug elimination rate [9]: 1.1 h⁻¹
kabs drug absorption rate [10]: 118 h⁻¹
kel drug elimination rate [10]: 0.44 h⁻¹
kabs drug absorption rate [11]: 9.4 h⁻¹
kel drug elimination rate [11]: 0.33 h⁻¹
kabs drug absorption rate [12]: 149 h⁻¹
kel drug elimination rate [12]: 0.06 h⁻¹
share of Mn^2+ efflux that occurs via the NCX (model prediction, highest dose of SEA0400): approximately 99%

From US8738114B2, “Systems and methods for measuring and modeling in vivo manganese ion transport in a subject” (Celtrast LLC, priority 2009, dated 2014)
